pIC50: −log10 of the molar value.
Assays:
CYP2C9 = target: T1, CYP2C9 (Homo sapiens, UniProt P11712); test: biochemical
T1 construct: purchased Merck; host or cells: yeast (inferred from the description of the CYPnull control, 'processed identically')
Experimental: The potential inhibitory effects of AOH on CYP2C9, 2C19, 2D6, and 3A4 enzymes were tested in vitro employing CypExpress human kits, using the substrates recommended by the U.S. Food and Drug Administration (FDA; https://www.fda.gov/drugs/drug-interactions-labeling/drug-development-and-drug-interactions-table-substrates-inhibitors-and-inducers; accessed on 19 December 2022) (diclofenac, S-mephenytoin, dextromethorphan, and testosterone, respectively). […] In these assays, the substrates and products were quantified by HPLC-UV [28].
IC50 values were calculated by sigmoidal fitting (Hill1), using the Origin (version 2018, OriginLab Corporation, Northampton, MA, USA) software.
After CYP450 incubations, the product formation rate was investigated using an integrated HPLC system (Jasco, Tokyo, Japan) built up from an autosampler (AS-4050), a binary pump (PU-4180), and a UV detector (UV-975). Chromatographic data were evaluated employing ChromNAV2 software (Jasco, Tokyo, Japan). Quantitative determinations of 4′-hydroxydiclofenac and diclofenac (CYP2C9), 4-hydroxymephenytoin and mephenytoin (CYP2C19), dextromethorphan and dextrorphan (CYP2D6), as well as testosterone and 6β-hydroxytestosterone (CYP3A4) were carried out as previously reported, without modifications.

OATP1B3 = target: T2, OATP1B3 (Homo sapiens, UniProt Q9NPD5); test: cell-based; settings: A431-OATP1B3; pyranine 20 µM; pH 5.5; 30 min; read-out: IC50, OATP1B3 inhibition
T2 construct: expressed in transfected cells; host or cells: A431
T2 sequence (Q9NPD5 whole entry): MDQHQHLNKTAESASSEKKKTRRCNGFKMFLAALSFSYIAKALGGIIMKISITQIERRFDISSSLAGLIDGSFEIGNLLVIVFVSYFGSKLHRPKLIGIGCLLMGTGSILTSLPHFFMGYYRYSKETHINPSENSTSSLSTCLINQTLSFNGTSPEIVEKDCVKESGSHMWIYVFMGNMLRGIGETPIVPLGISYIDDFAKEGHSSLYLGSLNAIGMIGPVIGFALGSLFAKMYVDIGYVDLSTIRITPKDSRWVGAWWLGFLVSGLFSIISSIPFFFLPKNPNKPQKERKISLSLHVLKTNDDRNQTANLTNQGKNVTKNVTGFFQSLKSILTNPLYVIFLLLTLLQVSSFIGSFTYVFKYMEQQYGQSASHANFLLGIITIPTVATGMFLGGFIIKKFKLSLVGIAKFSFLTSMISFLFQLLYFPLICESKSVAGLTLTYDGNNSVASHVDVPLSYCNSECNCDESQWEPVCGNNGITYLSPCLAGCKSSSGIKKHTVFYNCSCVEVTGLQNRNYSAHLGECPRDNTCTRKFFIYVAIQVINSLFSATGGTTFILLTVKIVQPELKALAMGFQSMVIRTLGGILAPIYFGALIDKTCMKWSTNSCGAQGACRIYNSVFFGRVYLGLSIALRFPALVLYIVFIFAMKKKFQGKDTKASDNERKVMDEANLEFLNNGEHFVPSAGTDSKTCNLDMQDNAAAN
Experimental: (§1) A431 cell lines overexpressing human OATPs (1A2, 1B1, 1B3, or 2B1) and their mock transfected controls were generated earlier. A431 cells expressed no or negligible OATPs compared to the overexpressing cell lines. Cells were cultured in Dulbecco’s modified Eagle medium (DMEM, Thermo Fisher Scientific, Waltham, MA, USA) with 10% fetal bovine serum, 2 mM L-glutamine, 100 U/mL penicillin, and 100 µg/mL streptomycin at 37 °C, with 5% CO2. OATP expression was regularly monitored (based on the transport activity of transfected cells), and the cells were used up to 20 passages.
(§2) Interaction between OATPs (1A2, 1B1, 1B3, and 2B1) and AOH was measured in an indirect transport assay with pyranine or sulforhodamine 101 as fluorescent probes. A431 cell overexpressing OATPs or their mock transfected controls were seeded on 96-well plates one day prior to the measurements in 200 µL DMEM in 8 × 10^4 cells/well density. Before the measurement, the medium was removed, and cells were washed three times with 200 µL PBS (phosphate-buffered saline, pH 7.2) at room temperature. Then the cells were preincubated with 50 µL uptake buffer (125 mM NaCl, 4.8 mM KCl, 1.2 mM CaCl2, 1.2 mM KH2PO4, […], 25 mM MES, and 5.6 mM glucose, with the pH adjusted using 1 M HEPES and 10 N NaOH, pH 5.5 for OATP1B1/1B3/2B1 and pH 7.4 for OATP1A2) with or without increasing concentrations (0.00, 0.16, 0.31, 0.63, 1.25, 2.5, 5.0, 10, and 20 μM) of AOH for 5 min. The reaction was started when the probe was added in 10 µM (pyranine; OATP1B1), 20 µM (pyranine; OATP2B1 and OATP1B3), or 0.5 µM (sulforhodamine 101; OATP1A2) final concentrations. […] Fluorescence was measured in an Enspire plate reader (Perkin Elmer, Waltham, MA, USA) in Ex/Em wavelengths 460/510 nm for pyranine and 586/605 nm for sulforhodamine 101. Bottom reading was applied with two horizontal (X) and two vertical (Y) points, measurement height was 3 mm with 200 flashes. IC50 values were calculated by sigmoidal fitting (Hill1), using the Origin (version 2018, OriginLab Corporation, Northampton, MA, USA) software.

OATP2B1 = target: T3, OATP2B1 (Homo sapiens, UniProt O94956); test: cell-based; settings: A431-OATP2B1; pyranine 20 µM; pH 5.5; 15 min; read-out: IC50, OATP2B1 inhibition
T3 construct: expressed in transfected cells; host or cells: A431
T3 sequence (O94956 whole entry): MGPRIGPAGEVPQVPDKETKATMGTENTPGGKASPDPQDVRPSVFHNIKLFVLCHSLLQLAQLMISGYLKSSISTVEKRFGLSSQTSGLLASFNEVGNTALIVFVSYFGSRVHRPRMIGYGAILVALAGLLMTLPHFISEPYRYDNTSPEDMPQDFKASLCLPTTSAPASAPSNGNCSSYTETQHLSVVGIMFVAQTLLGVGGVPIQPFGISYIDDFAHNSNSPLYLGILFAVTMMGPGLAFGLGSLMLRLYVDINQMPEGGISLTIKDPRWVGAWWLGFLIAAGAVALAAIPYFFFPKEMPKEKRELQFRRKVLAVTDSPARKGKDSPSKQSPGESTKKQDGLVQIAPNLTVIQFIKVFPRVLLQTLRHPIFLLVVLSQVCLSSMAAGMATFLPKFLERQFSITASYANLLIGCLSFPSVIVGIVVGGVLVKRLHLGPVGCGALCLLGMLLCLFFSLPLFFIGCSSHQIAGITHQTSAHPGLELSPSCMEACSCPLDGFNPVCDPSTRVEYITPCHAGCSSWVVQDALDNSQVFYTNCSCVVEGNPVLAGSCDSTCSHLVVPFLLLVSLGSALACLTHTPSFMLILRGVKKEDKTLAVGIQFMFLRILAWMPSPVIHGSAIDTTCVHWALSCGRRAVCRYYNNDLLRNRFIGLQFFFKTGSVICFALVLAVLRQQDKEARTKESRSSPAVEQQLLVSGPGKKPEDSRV
Experimental: as §1, §2

OATP1A2 = target: T4, OATP1A2 (Homo sapiens, UniProt P46721); test: cell-based; settings: A431-OATP1A2; sulforhodamine 101 0.5 µM; pH 7.4; 10 min; read-out: IC50, OATP1A2 inhibition
T4 construct: expressed in transfected cells; host or cells: A431
T4 sequence (P46721 whole entry): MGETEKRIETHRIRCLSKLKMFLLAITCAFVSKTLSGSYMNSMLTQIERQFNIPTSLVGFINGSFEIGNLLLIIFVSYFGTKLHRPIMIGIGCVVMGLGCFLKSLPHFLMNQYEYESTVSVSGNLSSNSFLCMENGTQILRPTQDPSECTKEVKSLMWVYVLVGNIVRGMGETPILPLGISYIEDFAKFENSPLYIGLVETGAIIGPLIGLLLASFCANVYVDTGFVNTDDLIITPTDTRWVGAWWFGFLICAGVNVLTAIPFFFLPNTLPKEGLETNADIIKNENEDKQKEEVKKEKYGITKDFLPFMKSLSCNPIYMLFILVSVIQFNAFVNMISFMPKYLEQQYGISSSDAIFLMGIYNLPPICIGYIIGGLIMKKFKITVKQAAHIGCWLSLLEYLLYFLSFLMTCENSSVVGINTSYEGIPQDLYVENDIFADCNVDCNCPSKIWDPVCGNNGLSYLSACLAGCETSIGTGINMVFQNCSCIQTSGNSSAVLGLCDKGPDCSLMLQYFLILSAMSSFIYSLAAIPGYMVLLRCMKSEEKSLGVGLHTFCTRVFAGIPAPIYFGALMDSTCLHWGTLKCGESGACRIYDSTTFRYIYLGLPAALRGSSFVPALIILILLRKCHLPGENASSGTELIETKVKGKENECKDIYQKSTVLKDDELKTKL
Experimental: as §1, §2

T1 sequence (P11712 whole entry): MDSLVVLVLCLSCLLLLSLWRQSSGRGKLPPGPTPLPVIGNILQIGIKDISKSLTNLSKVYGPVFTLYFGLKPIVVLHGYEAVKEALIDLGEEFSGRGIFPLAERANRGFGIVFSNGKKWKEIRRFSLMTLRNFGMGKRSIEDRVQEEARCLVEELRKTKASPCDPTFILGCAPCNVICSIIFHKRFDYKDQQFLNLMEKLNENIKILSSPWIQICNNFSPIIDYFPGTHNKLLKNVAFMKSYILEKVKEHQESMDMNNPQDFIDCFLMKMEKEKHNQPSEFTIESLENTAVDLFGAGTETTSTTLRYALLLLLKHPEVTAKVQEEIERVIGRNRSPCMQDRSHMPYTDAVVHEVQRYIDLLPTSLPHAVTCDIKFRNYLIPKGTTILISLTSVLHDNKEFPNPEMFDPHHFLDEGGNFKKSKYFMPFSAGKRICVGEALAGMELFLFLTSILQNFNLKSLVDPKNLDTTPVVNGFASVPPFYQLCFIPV

## Cc1cc(O)cc2oc(=O)c3c(O)cc(O)cc3c12 [AOH, Alternariol]
CYP2C9; 50 μM AOH
  decrease in the product formation (CYP2C9): > 80%
CYP2C9; diclofenac 4'-hydroxylation, read-out: IC50, CYP2C9 inhibition
  pIC50: 5.13
OATP1B3
  pIC50: 5.39
OATP2B1
  pIC50: 5.72
OATP1A2
  pIC50: 5.27
